# Assay results as given in PMC9139002, “Naphthoquinone as a New Chemical Scaffold for Leishmanicidal Inhibitors of Leishmania GSK-3” (Biomedicines, 2022).
# Like-named read-outs stand apart in the source and are kept apart here.
# Legend:
# [1] = test system: L. infantum promastigotes; assay: Leishmanicidal activity on promastigotes (MTT reduction), Table 2 and Table S1; type: cell-based, Leishmania infantum
# Protocol: (§1) Both activities were assessed by inhibition of MTT (3-(4,5-dimethylthiazol-2-yl)-2,5-diphenyltetrazolium bromide) reduction, as described in [34]. Samples were made in triplicate and assays were repeated at least twice. DMSO content in the medium was adjusted to 0.25% v/v (final concentration), regardless of the final concentration of the drug, and for the control, the untreated parasites. ICx (inhibitory concentration that inhibits parasite growth or enzymatic activity by x%) was calculated using the statistical module of SigmaPlot v11.0 software.
# In a step ahead, the leishmanicidal activity of the compounds on L. pifanoi axenic amastigotes and L. infantum promastigotes was evaluated. Axenic Leishmania amastigotes afford the appraisal of the leishmanicidal activity without the constrains imposed on the access of the compounds to intracellular amastigotes within the parasitophorous vacuole, as well as to preclude the interference of the compounds via host–parasite interface in the final activity. For that, the axenic line of L. pifanoi amastigotes belonging to the mexicana complex was chosen, as in this species the infectivity, antigenicity, and metabolic identity between axenic and intracellular amastigotes have been consistently validated.
# LdGSK-3s [2] = biological target: T1, LdGSK-3s (Leishmania donovani, UniProt A6N857); assay: Inhibition of recombinant LdGSK-3s with Kinase Glo; type: biochemical; conditions: recombinant LdGSK-3s, Kinase Glo
# T1 sequence (A6N857 entry or part of it): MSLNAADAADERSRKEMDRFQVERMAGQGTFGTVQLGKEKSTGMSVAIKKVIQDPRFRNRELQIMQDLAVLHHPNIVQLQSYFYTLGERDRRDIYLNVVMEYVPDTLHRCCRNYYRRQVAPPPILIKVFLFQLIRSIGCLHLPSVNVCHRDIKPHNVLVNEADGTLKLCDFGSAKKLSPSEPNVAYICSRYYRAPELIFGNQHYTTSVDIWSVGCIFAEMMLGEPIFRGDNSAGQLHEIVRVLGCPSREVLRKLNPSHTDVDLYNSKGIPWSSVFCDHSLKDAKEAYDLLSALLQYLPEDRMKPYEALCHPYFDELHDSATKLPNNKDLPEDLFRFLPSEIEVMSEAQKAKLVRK
# Protocol: (§2) Extraction, purification, and evaluation of compounds against recombinant LdGSK-3s was carried out as described. For that, a recombinant LdGSK-3s with a His-tag was obtained as inclusion bodies, that were further solubilized, and purified by chromatography first on a Ni^2+ column an in a second step on a DEAE (diethylaminoethyl) ionic exchange column. Samples were made in duplicate, and assays were repeated at least three times. IC50 (inhibitory concentration that decreases enzymatic activity by 50%) was calculated using the statistical module of SigmaPlot v11.0 software. Evaluation of compounds against hGSK-3β was performed using human recombinant GSK-3β purchased from Millipore as described previously. Compounds were prepared as a 10 mM stock solution in DMSO.
# [3] = test system: L. pifanoi axenic amastigotes; assay: Leishmanicidal activity on axenic amastigotes (MTT reduction); type: cell-based, Leishmania pifanoi
# [4] = test system: L. donovani promastigotes; assay: Mitochondrial membrane depolarization (Rhodamine 123 accumulation); type: cell-based, Leishmania donovani; conditions: 2 μM (IC80), 4 h
# [5] = test system: L. donovani promastigotes; assay: Sub G0/G1 population (propidium iodide flow cytometry); type: cell-based, Leishmania donovani; conditions: 72 h
# Protocol: L. donovani promastigotes (2 × 10^6 cells/mL) in RPMI-HIFCS were incubated with each compound in 24-well plates for 72 h at 26 °C by duplicate. Next, compounds were removed by washing with HBSS-Glc (15,700× g, 4 min, 4 °C) and cells were resuspended in […] of HBSS-Glc, fixed and permeabilized by addition of 200 μL 70% cold EtOH and incubated overnight at 4 °C. Ethanol was removed by centrifugation and cellular pellets washed with HBSS-Glc. Finally, cells were resuspended in 500 μL HBSS-Glc with 20 μg/mL propidium iodide (PI) and 3 mg/mL Ribonuclease A, and incubated in darkness at r. t. for 30 min. PI fluorescence was measured in a Coulter XL EPICS flow cytometer (Beckman Coulter, Nyon, Switzerland) (λEXC = 488 nm, λEM = 620 nm).
# Each assay was repeated at least twice. Untreated cells were used as control for a standard cell cycle histogram, and Miltefosine (hexadecylphosphocholine) (15 μM) was used as control for an apoptosis-inducing respiratory inhibitor [51].
# Parasites were incubated with the corresponding drug for 72 h, followed by EtOH permeabilization, incubated with 3 mg/mL Ribonuclease A and stained with 20 μg/mL of propidium iodide (PI) before cytofluorometric analysis. (λEXC = 488 nm, λEM = 620 nm). The percentage of subG0/G1 population (enclosed within green bars) stands for degraded chromatin, associated with the apoptotic-like process. Miltefosine (hexadecylphosphocholine, HePc) at 15 μM was added as a control for induction of apoptosis.
# hGSK-3β = biological target: T2, hGSK-3β (Homo sapiens, UniProt P49841); assay: Inhibition of human recombinant GSK-3β; type: biochemical; conditions: read-out: percentage of inhibition of hGSK-3β
# T2 construct: purchased Millipore
# T2 sequence (P49841 whole entry): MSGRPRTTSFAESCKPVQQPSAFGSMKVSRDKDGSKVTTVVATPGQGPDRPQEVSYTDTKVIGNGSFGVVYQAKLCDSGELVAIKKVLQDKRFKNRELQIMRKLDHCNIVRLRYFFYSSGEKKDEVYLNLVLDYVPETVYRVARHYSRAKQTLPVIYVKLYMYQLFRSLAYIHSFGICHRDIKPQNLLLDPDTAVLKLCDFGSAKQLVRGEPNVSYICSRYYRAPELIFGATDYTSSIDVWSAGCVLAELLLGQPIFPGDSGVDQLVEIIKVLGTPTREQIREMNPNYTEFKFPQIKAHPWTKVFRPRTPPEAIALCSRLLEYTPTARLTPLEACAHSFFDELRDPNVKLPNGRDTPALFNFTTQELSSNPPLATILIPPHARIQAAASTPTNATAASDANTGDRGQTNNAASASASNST
# Protocol: as §2
# [6] = test system: mouse peritoneal macrophages (MPM); assay: Cytotoxicity on mouse peritoneal macrophages (MTT reduction); type: cell-based; conditions: for Selectivity Index (SI): IC50 MPM/IC50 axenic amastigotes; for IC50: mouse peritoneal macrophages, MTT reduction
# Protocol: Leishmania parasites were collected at late exponential growth phase by centrifugation at 1610× g at 4 °C. Elicited mouse peritoneal macrophages (MPM) were obtained from 8-week-old Balb/c mice through i.p. injection with 1 mL of 10% thioglycolate medium 72 h before extraction. Macrophages were obtained by peritoneal washing (10 mL PBS, 4 °C).
# as §1
# LdGSK-3s [7] = biological target: T1, LdGSK-3s; assay: Mechanism of inhibition of LdGSK-3s (kinetics versus ATP, Eadie–Scatchard plot); type: biochemical; conditions: ATP 1 to 10 μM, inhibitor 2.5 and 5 μM, GS2 25 μM
# Protocol: Briefly, kinetic experiments were carried out at four different concentrations of ATP (10, 5, 2.5, and 1 µM), in the absence or presence of the inhibitors, at either 2.5 or 5 µM, while the phospho-glycogen synthase peptide-2 (GS2) substrate was kept constant at 25 µM. The data were processed using Microsoft Excel software and results presented as Eadie–Scatchard plots (v vs. v/[ATP]).
Compound,IC50 ([1]; Leishmania infantum) [µM],IC50 (LdGSK-3s [2]) [µM],IC50 ([3]; Leishmania pifanoi) [µM],Selectivity Index (SI) [6],IC50 ([6]; Peritoneal macrophage) [µM],melting point [°C],also measured
O=C1C(Cl)=C(NCc2ccccc2)C(=O)c2ccccc21,> 25,> 10,> 25,,,,
"CCOC(=O)NC1=C(Cl)C(=O)c2ccccc2C1=O [Compound 1, Ethyl-(3-chloro-1,4-naphthoquinone-2-yl)carbamate]",1.54 ± 0.01,3.7 ± 0.3,0.15 ± 0.4,20.6,3.1 ± 0.1,147 to 149,decrease of Rh123 fluorescence [4]: 33.0%; percentage of subG0/G1 population ([5]; 2 μM (IC80)): 54.0 ± 4.2%; inhibition at 10 µM (hGSK-3β): 30%; mechanism of inhibition of LdGSK-3s (LdGSK-3s [7]): ATP competitive inhibitors
"O=C(NC1=C(Cl)C(=O)c2ccccc2C1=O)OCc1ccccc1 [Compound 3, Benzyl-(3-chloro-1,4-naphthoquinone-2-yl)carbamate]",4.9 ± 0.2,2.8 ± 0.1,4.7 ± 0.8,,9.8 ± 0.2,,inhibition at 10 µM (hGSK-3β): 19%
"COc1ccc(COC(=O)NC2=C(Cl)C(=O)c3ccccc3C2=O)cc1 [Compound 4, 4-Methoxybenzyl-(3-chloro-1,4-naphthoquinone-2-yl)carbamate]",2.9 ± 0.2,4.1 ± 0.1,3.7 ± 1.1,2.0,7.4 ± 0.8,137 to 147,
"COc1cc(COC(=O)NC2=C(Cl)C(=O)c3ccccc3C2=O)cc(OC)c1OC [Compound 5, 3,4,5-Trimethoxybenzyl-(3-chloro-1,4-naphthoquinone-2-yl)carbamate]",3.8 ± 1.9,4.5 ± 0.6,3.6 ± 0.6,,8.1 ± 1,,
"CCCNC1=C(Cl)C(=O)c2ccccc2C1=O [Compound 6, 2-Chloro-3-(propylamino)-1,4-naphthoquinone]",19.1 ± 1.2,> 10,> 25,,,,
"CCCCCNC1=C(Cl)C(=O)c2ccccc2C1=O [Compound 7, 2-Chloro-3-(pentylamino)-1,4-naphthoquinone]",16.9 ± 0.4,> 10,> 25,,,,
"CC(C)(C)NC1=C(Cl)C(=O)c2ccccc2C1=O [Compound 8, 2-(tert-Butylamino)-3-chloro-1,4-naphthoquinone]",19.8 ± 3.6,> 10,17.8 ± 1.1,1.0,17 ± 0.3,,
"O=C1C(Cl)=C(NC2CCCCC2)C(=O)c2ccccc21 [Compound 9, 2-Chloro-3-(cyclohexylamino)-1,4-naphthoquinone]",> 25,> 10,> 25,,,122 to 123,
"COc1cc(CNC2=C(Cl)C(=O)c3ccccc3C2=O)cc(OC)c1OC [Compound 10, 2-Chloro-3-((3,4,5-trimethoxybenzyl)amino)-1,4-naphthoquinone]",> 50,> 10,> 50,,,161 to 163,
"O=C1C(Cl)=C(NCc2ccc(Cl)cc2)C(=O)c2ccccc21 [Compound 11, 2-Chloro-3-((4-chlorobenzyl)amino)-1,4-naphthoquinone]",> 25,> 10,> 25,,,,
"O=C1C(Cl)=C(Nc2ccc(Cl)cc2)C(=O)c2ccccc21 [Compound 12, 2-Chloro-3-((4-chlorophenyl)amino)-1,4-naphthoquinone]",> 50,> 10,> 50,,,,
"CC(C)(C)NC(=O)NC1=C(Cl)C(=O)c2ccccc2C1=O [Compound 14, 1-(tert-Butyl)-3-(3-chloro-1,4-naphthoquinone-2-yl)urea]",1.4 ± 0.4,> 10,2.1 ± 0.6,0.6,1.3 ± 0.3,195 to 196,
"COC(=O)NC1=CC(=O)c2ccccc2C1=O [Compound 16, Methyl-(1,4-naphthoquinone-2-yl)carbamate]",4.1 ± 0.8,> 10,1.7 ± 0.2,2.2,3.8 ± 0.3,201 to 202,
"CCOC(=O)NC1=CC(=O)c2ccccc2C1=O [Compound 17, Ethyl-(1,4-naphthoquinone-2-yl)carbamate]",4.5 ± 0.7,> 10,1.7 ± 0.1,2.5,4.2 ± 0.2,162 to 163,
"CCCCCCCCCCCCCCCCOP(=O)([O-])OCC[N+](C)(C)C [HePc, hexadecylphosphocholine, reference compound]",,,,,,,"percentage of subG0/G1 population ([5]; 15 μM, control for induction of apoptosis): 36.8 ± 1.1%"
"O=C1Nc2ccc(S(=O)(=O)O)cc2C1=C1Nc2ccccc2C1=NO [Indirubin-3′-monoxime-5-sulphonic acid, reference compound]",,2.4,,,,,
"N-(1,4-Naphthoquinone-2-yl) phenylacetamide [Compound 20]",,> 10,,,,,IC50 [1]: 7.1 ± 2.1 µM; IC50 [3]: 3.2 ± 0.1 µM; IC50 [6]: 7.5 ± 0.6 µM
"N-(1,4-Naphthoquinone-2-yl)acetamide [Compound 18]",,> 10,,,,,IC50 [1]: 4.5 ± 0.5 µM; IC50 [3]: 1.2 ± 0.1 µM; IC50 [6]: 4 ± 0.2 µM
"N-(1,4-Naphthoquinone-2-yl)propionamide [Compound 19]",,> 10,,,,,IC50 [1]: 5.9 ± 1.8 µM; IC50 [3]: 1.8 ± 0.3 µM; IC50 [6]: 4.3 ± 0.3 µM
